Measurements published in paper PMC10970622, “Functional Characterization of Endo- and Exo-Hydrolase Genes in Arabinan Degradation Gene Cluster of Bifidobacterium longum subsp. suis” (International Journal of Molecular Sciences, 2024).

Tests used:
BflsABN43B = target: T1, BflsABN43B (Bifidobacterium longum, UniProt A0A087B7X0); experiment: TLC of hydrolysis products; assay type: biochemical; conditions: 0.5% substrate, optimal conditions (pH 6.0, 50 °C)
T1 construct: gene BLSS_1420; full length, 581 aa, 65 kDa, C-terminal His6, E. coli BL21(DE3); starts MTATTS by primer
T1 sequence (A0A087B7X0 1-581): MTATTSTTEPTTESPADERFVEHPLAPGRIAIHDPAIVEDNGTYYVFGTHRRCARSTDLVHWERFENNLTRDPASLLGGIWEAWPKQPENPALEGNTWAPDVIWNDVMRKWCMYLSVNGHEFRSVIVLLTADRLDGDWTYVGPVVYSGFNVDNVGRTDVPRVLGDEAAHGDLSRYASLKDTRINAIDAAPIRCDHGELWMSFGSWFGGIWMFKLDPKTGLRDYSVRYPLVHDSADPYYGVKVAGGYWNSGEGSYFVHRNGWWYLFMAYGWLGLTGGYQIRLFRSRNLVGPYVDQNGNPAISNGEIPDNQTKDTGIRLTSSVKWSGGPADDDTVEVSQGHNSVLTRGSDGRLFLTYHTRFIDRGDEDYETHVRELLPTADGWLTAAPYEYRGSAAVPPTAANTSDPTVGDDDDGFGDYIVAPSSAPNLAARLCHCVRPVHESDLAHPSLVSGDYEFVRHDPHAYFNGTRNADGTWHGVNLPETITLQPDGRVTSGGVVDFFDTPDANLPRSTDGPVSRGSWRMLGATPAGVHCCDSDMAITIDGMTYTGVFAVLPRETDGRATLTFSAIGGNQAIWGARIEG

BflsABN43A = target: T2, BflsABN43A (Bifidobacterium longum, UniProt A0A087B7X1); experiment: TLC of hydrolysis products; assay type: biochemical; conditions: 0.5% substrate, optimal conditions (pH 5.0, 45 °C)
T2 construct: gene BLSS_1421; 531 aa (56 kDa) printed; 35-residue signal peptide removed (primer deltaS; starts M-SSNAKN by primer), C-terminal His6, E. coli; caution: same WP id also printed for BflsABF43A (710 aa)
T2 sequence (A0A087B7X1 36-531): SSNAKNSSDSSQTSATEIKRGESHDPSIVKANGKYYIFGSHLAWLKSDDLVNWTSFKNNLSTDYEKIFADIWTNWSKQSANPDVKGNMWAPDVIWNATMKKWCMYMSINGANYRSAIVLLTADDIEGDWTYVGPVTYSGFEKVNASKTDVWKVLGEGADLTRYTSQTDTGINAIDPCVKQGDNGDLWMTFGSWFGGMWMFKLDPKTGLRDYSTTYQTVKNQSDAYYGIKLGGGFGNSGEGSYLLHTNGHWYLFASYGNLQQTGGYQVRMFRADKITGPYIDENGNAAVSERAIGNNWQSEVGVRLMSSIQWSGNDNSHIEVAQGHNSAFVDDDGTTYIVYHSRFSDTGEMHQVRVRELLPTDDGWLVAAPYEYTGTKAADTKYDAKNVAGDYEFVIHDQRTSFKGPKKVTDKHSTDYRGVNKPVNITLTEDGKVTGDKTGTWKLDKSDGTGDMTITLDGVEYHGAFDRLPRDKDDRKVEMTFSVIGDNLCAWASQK

Compound: OC[C@@H]1O[C@@H](OC[C@@H]2O[C@@H](OC[C@@H]3O[C@@H](OC[C@@H]4O[C@@H](OC[C@@H]5O[C@@H](OC[C@@H]6OC(O)[C@H](O)[C@H]6O)[C@H](O)[C@H]5O)[C@H](O)[C@H]4O)[C@H](O)[C@H]3O)[C@H](O)[C@H]2O)[C@H](O)[C@H]1O (some centres unmarked) [A6, arabinohexaose]
- TLC of hydrolysis products (BflsABN43B): both ABNs demonstrated detectable hydrolytic activities to produce A2 and arabinotetraose (A4)
- TLC of hydrolysis products (BflsABN43A): both ABNs demonstrated detectable hydrolytic activities to produce A2 and arabinotetraose (A4)
